In the supplement of paper PMC11451515:

Tested on: NOMO1
Test: cell viability relative to DMSO control; higher = less cytotoxic
Conditions: 48 h
Procedure, shortened: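 Library compounds in DMSO were pin-dosed into 1536-well plates (5 μl) holding NOMO1 or SEM (500 cells/well) or P12-Ichikawa (1000 cells/well) leukemia cells, across an 11-point threefold series of 47 μM to 0.79 nM. Each cell line had been adapted for at least four passages in each medium. CellTiter-Glo One luminescence was read after 48 h at 37°C. Viability is the per-plate percentage relative to DMSO wells, with cell-free wells as background.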

[1] = HPLM + 10% dialyzed FBS, 0.000781 µM
[2] = HPLM + 10% dialyzed FBS, 0.00234 µM
[3] = HPLM + 10% dialyzed FBS, 0.00702 µM
[4] = HPLM + 10% dialyzed FBS, 0.0211 µM
[5] = HPLM + 10% dialyzed FBS, 0.0632 µM
[6] = HPLM + 10% dialyzed FBS, 0.19 µM
[7] = HPLM + 10% dialyzed FBS, 0.569 µM
[8] = HPLM + 10% dialyzed FBS, 1.71 µM
[9] = HPLM + 10% dialyzed FBS, 5.12 µM
[10] = HPLM + 10% dialyzed FBS, 15.4 µM
[11] = HPLM + 10% dialyzed FBS, 46.1 µM
[12] = RPMI 5 mM glucose + 10% FBS, 0.000781 µM
[13] = RPMI 5 mM glucose + 10% FBS, 0.00234 µM
[14] = RPMI 5 mM glucose + 10% FBS, 0.00702 µM
[15] = RPMI 5 mM glucose + 10% FBS, 0.0211 µM
[16] = RPMI 5 mM glucose + 10% FBS, 0.0632 µM
[17] = RPMI 5 mM glucose + 10% FBS, 0.19 µM
[18] = RPMI 5 mM glucose + 10% FBS, 0.569 µM
[19] = RPMI 5 mM glucose + 10% FBS, 1.71 µM
[20] = RPMI 5 mM glucose + 10% FBS, 5.12 µM
[21] = RPMI 5 mM glucose + 10% FBS, 15.4 µM
[22] = RPMI 5 mM glucose + 10% FBS, 46.1 µM
[23] = RPMI 5 mM glucose + 10% dialyzed FBS, 0.000781 µM
[24] = RPMI 5 mM glucose + 10% dialyzed FBS, 0.00234 µM
[25] = RPMI 5 mM glucose + 10% dialyzed FBS, 0.00702 µM
[26] = RPMI 5 mM glucose + 10% dialyzed FBS, 0.0211 µM
[27] = RPMI 5 mM glucose + 10% dialyzed FBS, 0.0632 µM
[28] = RPMI 5 mM glucose + 10% dialyzed FBS, 0.19 µM
[29] = RPMI 5 mM glucose + 10% dialyzed FBS, 0.569 µM
[30] = RPMI 5 mM glucose + 10% dialyzed FBS, 1.71 µM
[31] = RPMI 5 mM glucose + 10% dialyzed FBS, 5.12 µM
[32] = RPMI 5 mM glucose + 10% dialyzed FBS, 15.4 µM
[33] = RPMI 5 mM glucose + 10% dialyzed FBS, 46.1 µM

CN1C2=CC(=O)/C(=N/NC(N)=O)C=C2CC1S(=O)(=O)[O-].[Na+] (stereo not given)
cell viability [1]: 87% | cell viability [2]: 105% | cell viability [3]: 105% | cell viability [4]: 104% | cell viability [5]: 111% | cell viability [6]: 135% | cell viability [7]: 116% | cell viability [8]: 122% | cell viability [9]: 125% | cell viability [10]: 128% | cell viability [11]: 92.5% | cell viability [12]: 108% | cell viability [13]: 109% | cell viability [14]: 111% | cell viability [15]: 115% | cell viability [16]: 117% | cell viability [17]: 128% | cell viability [18]: 120% | cell viability [19]: 117% | cell viability [20]: 122% | cell viability [21]: 116% | cell viability [22]: 111% | cell viability [23]: 105% | cell viability [24]: 112% | cell viability [25]: 114% | cell viability [26]: 111% | cell viability [27]: 118% | cell viability [28]: 126% | cell viability [29]: 124% | cell viability [30]: 123% | cell viability [31]: 128% | cell viability [32]: 119% | cell viability [33]: 103%

CN(CCOc1ccc(NS(C)(=O)=O)cc1)CCc1ccc(NS(C)(=O)=O)cc1
cell viability [1]: 108% | cell viability [2]: 126% | cell viability [3]: 110% | cell viability [4]: 116% | cell viability [5]: 136% | cell viability [6]: 138% | cell viability [7]: 147% | cell viability [8]: 133% | cell viability [9]: 131% | cell viability [10]: 135% | cell viability [11]: 134% | cell viability [12]: 121% | cell viability [13]: 119% | cell viability [14]: 109% | cell viability [15]: 129% | cell viability [16]: 117% | cell viability [17]: 120% | cell viability [18]: 135% | cell viability [19]: 120% | cell viability [20]: 141% | cell viability [21]: 118% | cell viability [22]: 136%

COc1cccc2c(NCc3ccccc3)nc(-n3c(N)nc4ccccc43)nc12
cell viability [1]: 85.6% | cell viability [2]: 106% | cell viability [3]: 94.9% | cell viability [4]: 110% | cell viability [5]: 129% | cell viability [6]: 105% | cell viability [7]: 115% | cell viability [8]: 107% | cell viability [9]: 107% | cell viability [10]: 97% | cell viability [11]: 18.8% | cell viability [12]: 92.8% | cell viability [13]: 96.2% | cell viability [14]: 105% | cell viability [15]: 105% | cell viability [16]: 117% | cell viability [17]: 107% | cell viability [18]: 106% | cell viability [19]: 101% | cell viability [20]: 101% | cell viability [21]: 102% | cell viability [22]: 16.7% | cell viability [23]: 91.2% | cell viability [24]: 96.2% | cell viability [25]: 119% | cell viability [26]: 111% | cell viability [27]: 111% | cell viability [28]: 108% | cell viability [29]: 103% | cell viability [30]: 112% | cell viability [31]: 100% | cell viability [32]: 97.2% | cell viability [33]: 23.3%

FC(F)(F)C1=CC=C2C(SCCCCCO\C3=C\O\C(CN4CCOCC4)=C/C3=O)=CC=NC2=C1
cell viability [1]: 96% | cell viability [2]: 122% | cell viability [3]: 144% | cell viability [4]: 119% | cell viability [5]: 122% | cell viability [6]: 139% | cell viability [7]: 137% | cell viability [8]: 128% | cell viability [9]: 131% | cell viability [10]: 124% | cell viability [11]: 107% | cell viability [12]: 116% | cell viability [13]: 124% | cell viability [14]: 107% | cell viability [15]: 103% | cell viability [16]: 118% | cell viability [17]: 135% | cell viability [18]: 118% | cell viability [19]: 121% | cell viability [20]: 122% | cell viability [21]: 112% | cell viability [22]: 109% | cell viability [23]: 99.3% | cell viability [24]: 118% | cell viability [25]: 105% | cell viability [26]: 114% | cell viability [27]: 131% | cell viability [28]: 112% | cell viability [29]: 125% | cell viability [30]: 129% | cell viability [31]: 114% | cell viability [32]: 109% | cell viability [33]: 92.4%

CN1/C=C(\N=C(NC2=CC=C(C=C2)C(=O)N3CCOCC3)/C1=O)/C4=C(C)C(=CC=C4)NC(=O)C5=CC=C(C=C5)C(C)(C)C
cell viability [1]: 91.6% | cell viability [2]: 114% | cell viability [3]: 102% | cell viability [4]: 85.2% | cell viability [5]: 103% | cell viability [6]: 111% | cell viability [7]: 112% | cell viability [8]: 110% | cell viability [9]: 97.2% | cell viability [10]: 94.2% | cell viability [11]: 70.7% | cell viability [12]: 91.4% | cell viability [13]: 84.4% | cell viability [14]: 99.5% | cell viability [15]: 89.5% | cell viability [16]: 98.3% | cell viability [17]: 88.7% | cell viability [18]: 100% | cell viability [19]: 84.9% | cell viability [20]: 80.6% | cell viability [21]: 88.1% | cell viability [22]: 85.1% | cell viability [23]: 97.6% | cell viability [24]: 92.9% | cell viability [25]: 96.2% | cell viability [26]: 95.9% | cell viability [27]: 106% | cell viability [28]: 100% | cell viability [29]: 107% | cell viability [30]: 94.6% | cell viability [31]: 93.1% | cell viability [32]: 78.4% | cell viability [33]: 77.2%

CCc1c(O)cc(O)c(C(=O)c2ccc(OCCN3CCOCC3)c(OC)c2)c1CC(=O)N(CCOC)CCOC
cell viability [1]: 102% | cell viability [2]: 106% | cell viability [3]: 117% | cell viability [4]: 127% | cell viability [5]: 127% | cell viability [6]: 119% | cell viability [7]: 114% | cell viability [8]: 80.7% | cell viability [9]: 21.2% | cell viability [10]: 13.7% | cell viability [11]: 11.6% | cell viability [12]: 101% | cell viability [13]: 101% | cell viability [14]: 113% | cell viability [15]: 106% | cell viability [16]: 118% | cell viability [17]: 124% | cell viability [18]: 109% | cell viability [19]: 93.4% | cell viability [20]: 21.6% | cell viability [21]: 12.3% | cell viability [22]: 11.3% | cell viability [23]: 115% | cell viability [24]: 114% | cell viability [25]: 114% | cell viability [26]: 108% | cell viability [27]: 114% | cell viability [28]: 106% | cell viability [29]: 102% | cell viability [30]: 98.8% | cell viability [31]: 28.2% | cell viability [32]: 16.4% | cell viability [33]: 14.1%

CC(Cc1ccc(O)c(O)c1)(NN)C(=O)O (stereo not given)
cell viability [1]: 104% | cell viability [2]: 109% | cell viability [3]: 102% | cell viability [4]: 103% | cell viability [5]: 117% | cell viability [6]: 113% | cell viability [7]: 107% | cell viability [8]: 99.3% | cell viability [9]: 115% | cell viability [10]: 121% | cell viability [11]: 92.3% | cell viability [12]: 114% | cell viability [13]: 118% | cell viability [14]: 113% | cell viability [15]: 126% | cell viability [16]: 115% | cell viability [17]: 103% | cell viability [18]: 105% | cell viability [19]: 109% | cell viability [20]: 112% | cell viability [21]: 110% | cell viability [22]: 106% | cell viability [23]: 114% | cell viability [24]: 106% | cell viability [25]: 129% | cell viability [26]: 128% | cell viability [27]: 123% | cell viability [28]: 106% | cell viability [29]: 103% | cell viability [30]: 99.8% | cell viability [31]: 116% | cell viability [32]: 106% | cell viability [33]: 94.7%
